The subject of this experiment is vitellogenin (Vg) transcription in the female mosquito fatbody. The experiment is described as follows: Vg expression 24 h post-feeding on diets (q-RT-PCR). The following applies: ΔΔCT method. It is filed as in vivo, Anopheles coluzzii. The method, then: FIG. 2a. Effects of the fresh-blood-free diets on oogenesis: Expression of vitellogenin precursor. Relative expression was determined using the ΔΔCT method as fold change to mosquitoes fed on the ILD, where RLD-NoP and ILD-NoP represent liquid diet compositions not supplemented with peptides, blood represent conventional blood diets and the remaining RLDs and ILDs represent respectively Rich Liquid Diet and Initial Liquid Diet supplemented with the correspondent indicated peptide P1 to P6.
Oogenesis was assessed by changes in Vg expression 24 h post-feeding (FIG. 2a). Vg expression levels in the fatbodies was quantified using the ΔΔCT method a) after a blood meal, b) after microinjection with the different peptides, and c) after being fed on the various artificial diets as described in section 4. […]
Quantitative Real-time Polymerase Chain Reaction (q-RT-PCR) analysis was used to quantify the expression of Vitellogenin-1 precursor (Vg), a protein biomarker of mosquito oogenesis initiation. Vg expression levels in the fatbodies were quantified using the ΔΔCT method a) after a blood meal, b) after microinjection with the different peptides, and c) after being fed on the various artificial diets. […]
Oogenesis was assessed by changes in Vg expression 24 h post-feeding mosquitoes with the artificial diets of Examples 1 and 2 and conventional vertebrate blood diet (FIG. 2a). […]

On to “Glucagon-like peptide 2 (HADGSFSDEMNTILDNLAARDFINWLIQTKITD; Glucagon-like peptide 2; UniProt P01275 146-178, looked up) [Diet P2, glucagon-like peptide 2 (1-33) (human), from Bachem]”, for which the “Vg transcript levels after feeding” value is “significantly increased VTG expression”.
